# Measured values from US8557796B2, “Substituted 1-oxa-2,8-diaza-spiro [4,5] dec-2-ene derivatives and related treatment methods” (Gruenenthal GmbH, priority 2001, dated 2013).
# Test system: batrachotoxin (BTX) binding site (binding site 2) of the sodium channel
# Experiment: Bond test on the sodium channel, binding site 2 (BTX bond), [3H]-batrachotoxinin A20 α-benzoate displacement
# Conditions: rat cerebrocortex synaptosomes
row,SMILES,"BTX bond, 10 μM, % inhibition [%]"
1,CN(CCCNC(=O)C1=NOC2(CCN(S(=O)(=O)c3ccc(Cl)s3)CC2)C1)c1ccccc1 [Example 89],81
2,"CCOC(=O)N1CCC(NC(=O)C2=NOC3(CCN(C(=O)c4ccc(Br)cc4)CC3)C2)CC1 [Example 62, 4-{[8-(4-bromo-benzoyl)-1-oxa-2,8-diaza-spiro[4,5]dec-2-ene-3-carbonyl]-amino)-piperidine-l-carboxylic acid ethyl ester]",49
3,"CC(NC(=O)C1=NOC2(CCN(S(=O)(=O)c3cccs3)CC2)C1)c1ccccc1 (stereo not shown) [Example 8, 8-(thiophene-2-sulphonyl)-1-oxa-2,8-diaza-spiro[4,5]dec-2-ene-3-carboxylic acid (1-phenyl-ethyl)-amide]",63
4,COc1ccc(OC)c(CN(Cc2ccco2)C(=O)C2=NOC3(CCN(S(=O)(=O)c4ccc(F)cc4)CC3)C2)c1 [Example 160],75
5,"CN(C)S(=O)(=O)N1CCC2(CC1)CC(C(=O)N1CCN(C3CCCCCC3)CC1)=NO2 [Example 144, 3-(4-cycloheptyl-piperazine-1-carbonyl)-1-oxa-2,8-diaza-spiro[4,5]dec-2-ene-8 sulphonic acid dimethylamide]",53
6,"O=C(NCc1cccs1)C1=NOC2(CCN(C(=O)c3ccc(F)c(Cl)c3)CC2)C1 [Example 184, 8-(3-chloro-4-fluorobenzoyl)-1-oxa-2,8-diaza-spiro[4,5]dec-2-ene-3-carboxylic acid (thiophen-2-ylmethyl)-amide]",73
7,"CC1CCCCN1CCCNC(=O)C1=NOC2(CCN(S(=O)(=O)c3cc(Cl)ccc3Cl)CC2)C1 (stereo not shown) [Example 15, 8-(2,5-dichloro-benzenesulphonyl)-1-oxa-2,8-diaza-spiro[4,5]dec-2-ene-3-carboxylic acid[3-(2-methyl-piperidin-1-yl)-propyl]-amide]",88
8,"O=C(NC1CCCC1)C1=NOC2(CCN(C(=O)c3cccnc3Oc3ccccc3)CC2)C1 [Example 153, 8-(2-phenoxy-pyridine-3-carbonyl)-1-oxa-2,8-diaza-spiro[4,5]dec-2-ene-3-carboxylic acid cyclopentylamide]",41
9,"CCN(CCNC(=O)C1=NOC2(CCN(S(=O)(=O)N(C)C)CC2)C1)c1cccc(C)c1 [Example 216, 8-dimethylsulphamoyl-1-oxa-2,8-diaza-spiro[4,5]dec-2-ene-3-carboxylic acid [2-(ethyl-m-tolyl-amino)-ethyl]amide]",64
10,"O=C(Nc1ccccc1)C1=NOC2(CCN(C(=O)c3cccc(Cl)c3Cl)CC2)C1 [Example 172, 8-(2,3-dichloro-benzoyl)-1-oxa-2,8-diaza-spiro[4,5]dec-2-ene-3-carboxylic acid phenylamide]",60
11,C=CCOC(=O)C(CC(=O)OC(C)(C)C)NC(=O)C1=NOC2(CCN(S(=O)(=O)c3cc(Cl)ccc3Cl)CC2)C1 (stereo not shown) [Example 53],47
12,"COc1ccc(S(=O)(=O)N2CCC3(CC2)CC(C(=O)NC(C)Cc2ccc(Cl)cc2)=NO3)cc1 (stereo not shown) [Example 164, 8-(4-methoxy-benzenesulphonyl)-1-oxa-2,8-diaza-spiro[4,5]dec-2-ene-3-carboxylic acid [2-(4-chloro-phenyl)-1-methyl-ethyl]-amide]",52
13,"Cc1ccccc1N1CCN(C(=O)C2=NOC3(CCN(S(=O)(=O)Cc4ccccc4)CC3)C2)CC1 [Example 133, (8-phenylmethanesulphonyl-1-oxa-2,8-diaza-spiro[4,5]dec-2-en-3-yl)-(4-o-tolyl-piperazin-l-yl)-methanone]",47
14,"Cc1ccc(F)cc1S(=O)(=O)N1CCC2(CC1)CC(C(=O)NCCN(C)C)=NO2 [Example 37, 8-(5-fluoro-2-methyl-benzenesulphonyl)-1-oxa-2,8-diaza-spiro[4,5]dec-2-ene-3-carboxylic acid (2-dimethylamino-ethyl)-amide]",70
15,"CCOC(=O)N1CCC(NC(=O)C2=NOC3(CCN(C(=O)C4CC4c4ccccc4)CC3)C2)CC1 (stereo not shown) [Example 55, 4-{[8-(2-phenyl-cyclopropanecarbonyl)-1-oxa-2,8-diaza-spiro[4,5]dec-2-ene-3-carbonyl]-amino}-piperidine-1-carboxylic acid ethyl ester]",47
16,"O=C(C1=NOC2(CCN(S(=O)(=O)c3ccc(OC(F)(F)F)cc3)CC2)C1)N(CCc1ccccc1)Cc1ccccc1 [Example 97, 8-(4-trifluoromethoxy-benzenesulphonyl)-1-oxa-2,8-diaza-spiro[4,5]dec-2-ene-3-carboxylic acid benzyl-phenethyl-amide]",79
17,"CN(C)S(=O)(=O)N1CCC2(CC1)CC(C(=O)N1CCN(CCCc3ccccc3)CC1)=NO2 [Example 80, 3-[4-(3-phenyl-propyl)-piperazine-1-carbonyl]-1-oxa-2,8-diaza-spiro[4,5]dec-2-ene-8-sulphonic acid dimethylamide]",44
18,O=C(NCCN1CCCC1)C1=NOC2(CCN(S(=O)(=O)c3ccc(F)c(Cl)c3)CC2)C1 [Example 11],69

row,SMILES,"BTX bond, 10 μM, % inhibition [%]"
1,"Cc1ccc(S(=O)(=O)N2CCC3(CC2)CC(C(=O)NCc2cc(Cl)cc(Cl)c2)=NO3)cc1 [Example 63, 8-(toluene-4-sulphonyl)-1-oxa-2,8-diaza-spiro[4,5]dec-2-ene-3-carboxylic acid 3,5-dichlorobenzylamide]",38
2,O=C(NCc1cccs1)C1=NOC2(CCN(C(=O)CCCOc3ccccc3)CC2)C1 [Example 183],68
3,"CCSc1ncccc1C(=O)N1CCC2(CC1)CC(C(=O)NCc1ccccc1)=NO2 [Example 115, 8-(2-ethylsulphanyl-pyridine-3-carbonyl)-1-oxa-2,8-diaza-spiro[4,5]dec-2-ene-3-carboxylic acid benzylamide]",48
4,"CN(C)S(=O)(=O)N1CCC2(CC1)CC(C(=O)NC1CCCC1OCc1ccccc1)=NO2 (stereo not shown) [Example 163, 8-dimethylsulphamoyl-1-oxa-2,8-diaza-spiro[4,5]dec-2-ene-3-acarboxylic cid (2-benzyloxy-cyclopentyl)-amide]",40
5,O=C(NC1CCCC1OCc1ccccc1)C1=NOC2(CCN(S(=O)(=O)c3ccc(Cl)s3)CC2)C1 (stereo not shown) [Example 191],75
6,"COc1ccc(Br)cc1S(=O)(=O)N1CCC2(CC1)CC(C(=O)NC1CCCC1)=NO2 [Example 173, 8-(5-bromo-2-methoxy-benzenesulphonyl)-1-oxa-2,8-diaza-spiro[4,5]dec-2-ene-3-carboxylic acid cyclopentylamide]",62
7,"O=C(C1=NOC2(CCN(S(=O)(=O)c3ccc(OC(F)(F)F)cc3)CC2)C1)N1CCN(CCCc2ccccc2)CC1 [Example 176, [4-(3-phenyl-propyl)-piperazin-l-yl]-[8-(4-trifluoromethoxy-benzenesulphonyl)-1-oxa-2,8-diaza-spiro [4,5]dec-2-en-3-yl]-methanone]",76
8,"O=C(NCc1ccccc1)C1=NOC2(CCN(C(=O)c3ccc(F)c(Cl)c3)CC2)C1 [Example 205, 8-(3-chloro-4-fluorobenzoyl)-1-oxa-2,8-diaza-spiro[4,5]dec-2-ene-3-carboxylic acid benzylamide]",53
9,O=C(NC1CCCC1OCc1ccccc1)C1=NOC2(CCN(S(=O)(=O)c3ccc(F)cc3)CC2)C1 (stereo not shown) [Example 199],67
10,"CCOC(=O)C1CCCCN1C(=O)C1=NOC2(CCN(C(=O)c3ccc(C(C)(C)C)cc3)CC2)C1 (stereo not shown) [Example 195, 1-[8-(4-tert-butyl-benzoyl)-1-oxa-2,8-diaza-spiro[4,5]dec-2-ene-3-carbonyl]-piperidine-2-carboxylic acid ethyl ester]",85
11,"CN(Cc1cccnc1)C(=O)C1=NOC2(CCN(S(=O)(=O)c3cc(Cl)ccc3Cl)CC2)C1 [Example 92, 8-(2,5-dichloro-benzenesulphonyl)-1-oxa-2,8-diaza-spiro[4,5]dec-2-ene-3-carboxylic acid methyl-pyridin-3-ylmethyl-amide]",65
12,"Cc1ccc(S(=O)(=O)N2CCC3(CC2)CC(C(=O)N(CCc2ccccc2)Cc2ccccc2)=NO3)cc1 [Example 18, 8-(toluene-4-sulphonyl)-1-oxa-2,8-diaza-spiro[4,5]dec-2-ene-3-carboxylic acid benzyl-phenethyl-amide]",53
13,O=C(C1=NOC2(CCN(S(=O)(=O)c3ccc(F)cc3)CC2)C1)N1CCN(C2CCCCCC2)CC1 [Example 218],79
14,"O=C(NCc1cccs1)C1=NOC2(CCN(C(=O)COc3cccc(Cl)c3)CC2)C1 [Example 96, 8-[2-(3-chloro-phenoxy)-acetyl]-1-oxa-2,8-diaza-spiro[4,5]dec-2-ene-3-carboxylic acid (thiophen-2-ylmethyl)-amide]",72
15,O=C(C1=NOC2(CCN(S(=O)(=O)Cc3ccccc3)CC2)C1)N1CCN(CCCc2ccccc2)CC1 [Example 69],50
16,"O=C(C1=NOC2(CCN(S(=O)(=O)c3ccc(Cl)s3)CC2)C1)N1CCN(c2ccc(F)cc2)CC1 [Example 91, [8-(5-chloro-thiophene-2-sulphonyl)-1-oxa-2,8-diaza-spiro[4,5]dec-2-en-3-yl]-[4-(4-fluorophenyl)-piperazin-1-yl]-methanone]",72
17,"O=C(Nc1ccccc1)C1=NOC2(CCN(C(=O)c3ccc(Br)cc3)CC2)C1 [Example 181, 8-(4-bromo-benzoyl)-1-oxa-2,8-diaza-spiro[4,5]dec-2-ene-3-acarboxylic cid phenylamide]",50
18,"O=C(NCc1ccc2c(c1)OCO2)C1=NOC2(CCN(S(=O)(=O)c3ccc(Cl)s3)CC2)C1 [Example 30, 8-(5-chloro-thiophene-2-sulphonyl)-1-oxa-2,8-diaza-spiro[4,5]dec-2-ene-3-carboxylic acid (benzo[1,3]dioxol-5-ylmethyl)-amide]",56

# Same assay, conditions: rat cerebrocortex synaptosomes, 10 µM
row,SMILES,"BTX bond, 10 μM, % inhibition [%]"
1,"COc1ccc(S(=O)(=O)N2CCC3(CC2)CC(C(=O)NC2CCCC2OCc2ccccc2)=NO3)cc1 (stereo not shown) [Example 121, 8-(4-methoxy-benzenesulphonyl)-1-oxa-2,8-diaza-spiro[4,5]dec-2-ene-3-carboxylic acid (2-benzyloxy-cyclopentyl)-amide]",42
